# Measurements reported in patent US12555809B2, “Additives for fluorenone/fluorenol based aqueous redox flow batteries” (Battelle Memorial Institute, priority 2021, dated 2026).
# Key:
# [1] = cited from earlier work; for H—B pKa: conjugate acid of B^-
# [2] = Solubility measurement (saturated solution concentration by NMR); format: physicochemical; conditions: with less than 0.1 M β-CD added
# Procedure: A general procedure was applied following below steps. First a supernatant was prepared by mixing solute and solvent with heating, stirring, and centrifugation. The resulting cooled mixture was filtered through 0.2 μm PP membrane filter. The saturated solution concentration was determined by NMR. NMR sample was prepared with mixing 100 μL of saturated solution, 50 μL of internal standard solution (1 M sodium methane sulfonate) and 950 μL D2O.
# [3] = PFG NMR diffusion coefficients (1H, 23Na); format: physicochemical; conditions: for D(Na^+): 23Na PFG NMR at 25° C.
# Procedure: Nuclear magnetic resonance spectroscopy: NMR spectra were either collected on a 500 MHz Oxford NMR spectrometer at 25° C. (the system consists of an Oxford AS500 magnet connected to an Agilent Technologies console), or collected on a 400 MHz NMR spectrometer (Bruker 400 MHz Avance III NMR with NanoBay console, equipped with a SampleCase™ autosampler using IconNMR automation. Probe: BBFO 5 mm SmartProbe sensor). Chemical shifts were reported in ppm with the solvent resonance as the internal standard (DMSO, δ=2.50; D2O, δ=4.70; CDCl3, δ=7.26).
# [4] = Small-angle X-ray scattering (SAXS) cluster size; format: physicochemical; conditions: for Diameter: SAXS
# Excerpt: Small-angle X-ray scattering: Synchrotron SAXS technique is a powerful technique to measure the size of dissolved molecules, clusters, and suspended particles. SAXS resolves the particle size and shape over a wide range of sizes from several Å to hundreds of nm. Considering the small sizes and low electron contrast of β-CD, FL and FLOH relative to solution, there was a focus on collecting data from a scattering vector, q, of 0.05 to 2 Å-1. Small-angle X-ray scattering (SAXS) data was acquired at beamline 12-ID-B of the APS. A constant incident photon energy of 13.3 keV (λ=0.9322 Å) was used to measure samples in transmission through a 2-mm ID silica capillary (Charles Supper SiO2 capillaries, 10 μm wall thickness). Sample-to-detector distance was calibrated using a silver behenate standard. 2D images were recorded using a Pilatus 2M detector (Dectris; pixel size 172×172 μm^2) for five frames at a 1 s exposure time each. Artifacts from static noise were subtracted using detector dark images, which were acquired every ten frames. Solution blanks were acquired identical to the suspension samples and subtracted using a scaling factor of 1. The RAW program from the BioXTAS package was used, as well as SasView and Irena, to integrate the data, average and merge scans, perform background subtractions, and to calculate pair distance distribution functions (PDDF).
# [5] = Rotating disk electrode (RDE) study; format: physicochemical; conditions: 27S4CFL (5 mM) in 0.1 M β-CD/1 M NaOH
# Procedure: Rotating disk electrode (RDE) measurements (Feng et al., Science 2021, 372:836) were performed using a three-electrode configuration consisting of a glassy carbon working electrode (3 mm diameter), a carbon rod counter electrode and an Ag/AgCl reference electrode. The electrolytes of 5 mM redox-active materials in 1.0 M NaOH were used. Data were collected using a CHI potentiostat at scan rates of 5 mV/s in the potential range of −1.55V˜−0.5V vs Ag/AgCl. The rotation rates were at 300, 600, 900, 1200, 1500, 1800, 2100 and 2400 rpm. […] The Koutecky-Levich plots at different overpotentials were extrapolated to get the kinetic current ik according to the Koutecky-Levich equation:
# [formula] The exchange current i0 can be obtained by fitting ik to the Tafel plot at the overpotential of zero, from which the reaction rate constant (k0) was determined according to Butler-Volmer equation: i0=nFACk0 Flow Battery Tests
# [6] = H-cell oxidation rate measurement (chronocoulometry)
# Procedure: The measurement was conducted with H-cell equipped with Hg/HgO as reference electrode and Glassy carbon electrode as working electrode (0.0707 cm^2). Carbon rod was used as counter electrode. Stir bar was equipped to facilitate mass transfer, so it is not considered as a limiting factor in the measurement of oxidation process. Chronocoulometry method was applied at specified potential for 120 s with IR compensation (CI mode on Gamry) and 1.5 s per data point. Nafion® 212 (soaked in 1 M NaOH at room temperature) was used as separator. Each data point was repeated three times. The electrolyte solution was prepared using the battery charging to specified SOC. The battery was constructed with 8 mL of 0.3 M 274FL/1 eqNaOH/1 M NaOH and 30 mL of 0.3 M potassium ferrocyanide/0.3 M potassium ferricyanide/1 M NaOH. After charged to specified SOC, the anolyte solution was diluted with 1 M NaOH to result a 15 mM active material solution. The catholyte was diluted with 1 M NaOH to result an 8.75 mM potassium ferrocyanide/28.75 mM potassium ferricyanide solution. The solution used for H-cell measurement in each compartment was 5 mL, with addition of specified amount of additive. To prepare deuterated fluorenol, the cell was constructed using NaOD/D2O for both anolyte and catholyte.
# Due to well stirred solution and only 120 s measurement with small electrode area, mass transfer and SOC change influence can be considered as neglectable. Thus, a linear relationship was obtained (A condition where neglectable oxidizable material concentration change during testing period). The slope represents an oxidation rate (C/s, average current, unit A) for the solution oxidizable species during that testing period.
# A heterogeneous reaction oxidation rate constant (cm/s) at a specified overpotential was calculated based on a pseudo first order reaction model (Hammerich et al., Organic electrochemistry:revised and expanded 2015, CRC Press; Markle et al., Science Advances 2018, 4: eaat5776):
# [formula] here “i” unit is A(C/s), A is 0.0707 cm^2. […]
# [7] = Battery current response test at controlled voltage; conditions: fully charged electrolyte, 0.9V controlled voltage discharge
# Procedure: The battery of FIG. 13 was constructed similar to above described procedure, except that two consecutive cell stacks were employed (electrolyte flow through the two cells consecutively), one for charging and discharging, one for OCV monitoring. The battery in FIG. 18 was constructed using one cell stack, with additional pump and tubing system circulating ˜3 mL electrolyte through EPR detecting tube at 100 rpm rate. Anolyte was comprised of 12 mL 0.1 M 274FL/1 M NaOH with specified additive at 0.086 M. Catholyte was comprised of 500 mL 0.1 M ferrocyanide/0.05 M ferricyanide/1 M NaOH. Electrolyte was charged until desired SOC reached. Then the discharge current response was measured at controlled voltage of 0.9V. Each measurement was repeated 5 cycles (FIG. 13) and experiments were repeated two times in FIG. 18.
# [8] = EPR of comproportionation mixture (FLOH + FL); conditions: 0.001 M FLOH and 0.001 M FL 1:1, 0.001 M β-CD, 20 min after mixing
# Procedure: Electron paramagnetic resonance spectroscopy: EPR measurements were performed on a Bruker ELEXSYS E580 spectrometer at 298 K. The electrolyte solution sample was pulled into a glass capillary (VitroTubes™, ID 0.8 mm and OD 1 mm) using a Hamilton syringe connected through nanotight fittings from Valco Instruments Co. Inc. The capillary was sealed using Critoseal™ Leica Microsystems capillary tube sealant on both ends and was further placed inside a 4 mm EPR tube with the open end sealed inside a glove box filled with nitrogen. All samples were prepared inside the glove box immediately before EPR experiments to minimize the influence of air and moisture. The typical settings for the spectra were microwave frequency=9.324 GHz, sweep time=41.94 s, time constant=5.12 ms, power=0.02 mW, field modulation amplitude=0.05 G, and sweep width=24 G for dilute solutions in order to capture the detailed hyperfine structures but the sweep width was increased to 50 G for relatively concentrated solutions to incorporate their broader line widths. Absolute spin concentrations of the samples were determined by calibration curves of the spin standard TEMPO (2,2,6,6-tetramethyl-1-piperidinyloxyl) with concentrations varying from 0.01 mM to 100 mM, and another spin standard 4-Hydroxy-TEMPO with concentrations varying from 0.1 M to 1.0 M.
# [9] = pKa of additive / proton acceptor (H—B) and deprotonation of β-CD in alkaline solution; format: physicochemical; conditions: 0.1 M β-CD added to 1 M NaOH
# Excerpt: β-(Cyclodextrin)CD was selected as model compound. Not only benefiting from the cavity containing poly-hydroxyl structure, but it also has a pKa at around 13.5, which is similar to the pKa of functionalized fluorenol, rendering a potentially strong H-bonding structure. Based on past studies (Gaidamauskas et al., Carbohydrate Research 2009, 344:250-254) and measurement of β-CD behavior in alkaline solution, this supermolecule experiences two-fold of deprotonation in 1 M NaOH. […] From a battery operation point, β-CD is notable for its redox-inert character and large molecular size, which leaves no concern of crossover and loss of catalyst. From a practical application point, the low-cost and non-toxic merit warrants feasible implementation.
# [10] = ratio of diffusion coefficients
SMILES,D(FLOH or FL) ([3]; 1H PFG NMR at 25° C.),D(H2O) ([3]; 1H PFG NMR at 25° C.),D(Na^+) [3],"D(FLOH or FL)/D(H2O) [3, 10]","D(Na^+)/D(H2O) [3, 10]",Diameter [4],H—B pKa [1],further results
Oc1ccc(O)cc1,–,–,–,–,–,–,9.7,–
"O=C(O)c1cccc2c1-c1ccc(S(=O)(=O)[O-])cc1C2=O.[K+] [4C7SFL, 4-carboxylate-7-sulfonate fluorenone/fluorenol]",–,–,–,–,–,–,–,"solubility ([2]; aqueous with cosolvent or surfactant or cyclodextrin, thermodynamic from solid, read-out: measured solubility): ~1900 mM; solubility increase compared with solubility without β-CD [2]: ~30%; volumetric capacity corresponding to solubility [2]: 101.8 Ah/L"
"O=C(O)c1cc(S(=O)(=O)O)cc2c1-c1ccc(S(=O)(=O)O)cc1C2=O [27S4CFL, 2,7-sulfonate-4-carboxylate fluorenone]",1.92 ×10^−10 m^2/s,12.1 ×10^−10 m^2/s,7.60 ×10^−10 m^2/s,0.16,0.63,16.48 ± 0.21 Å Å,–,calculated diffusion coefficient [5]: 7.56×10^−6 cm^2/s; calculated kinetic reduction rate constant for the first electron [5]: 0.00351 cm/s
OCC(F)(F)F [CF3CH2O],–,–,–,–,–,–,11.4-12.4,–

# Now from value to molecule, other results behind:
D(FLOH or FL) ([3]; 1H PFG NMR at 25° C.),D(H2O) ([3]; 1H PFG NMR at 25° C.),D(Na^+) [3],"D(FLOH or FL)/D(H2O) [3, 10]","D(Na^+)/D(H2O) [3, 10]",Diameter [4],SMILES,H—B pKa [1],further results
2.45 ×10^−10 m^2/s,13.6 ×10^−10 m^2/s,6.72 ×10^−10 m^2/s,0.18,0.49,12.32 ± 1.84 Å Å,"O=C(O)c1cc(S(=O)(=O)O)cc2c1-c1ccc(S(=O)(=O)O)cc1C2O (centres unmarked) [FLOH, 2,7-sulfonate-4-carboxylate fluorenol]",–,D(FLOH - H6) ([3]; 1H PFG NMR at 25° C.): 2.43 ×10^−10 m^2/s
–,13.1 ×10^−10 m^2/s,8.12 ×10^−10 m^2/s,–,0.62,11.76 ± 3.94 Å Å,"OC[C@H]1O[C@@H]2O[C@H]3[C@H](O)[C@@H](O)[C@@H](O[C@H]4[C@H](O)[C@@H](O)[C@@H](O[C@H]5[C@H](O)[C@@H](O)[C@@H](O[C@H]6[C@H](O)[C@@H](O)[C@@H](O[C@H]7[C@H](O)[C@@H](O)[C@@H](O[C@H]8[C@H](O)[C@@H](O)[C@@H](O[C@H]1[C@H](O)[C@H]2O)O[C@@H]8CO)O[C@@H]7CO)O[C@@H]6CO)O[C@@H]5CO)O[C@@H]4CO)O[C@@H]3CO [β-CD, β-cyclodextrin]",–,"pKa [1]: around 13.5; increment of fluorenol oxidation ([6]; H-cell, −0.65V vs Hg/HgO): 1.6 times; KIE value ([6]; applied potential of −0.65V vs Hg/HgO): 2.42; deuterated fluorenol oxidation rate enhancement ([6]; deuterated fluorenol): 1.4 times; D(β-CD) ([3]; 1H PFG NMR at 25° C.): 1.57 ×10^−10 m^2/s; D(β-CD)/D(H2O) [3, 10]: 0.12; height of the cup ([4]; SAXS RDFs): ~4 Å; width of the cup ([4]; SAXS RDFs): ~12 Å; peak current density relative to blank [7]: 1.6 times; reduction of radical concentration estimated from EPR peak intensity [8]: 60%; hydroxide consumption corresponding to pH decrease [9]: 0.184 M"
